Converted amounts (≈) assume the structure as drawn.
Assays:
Assay in all cases: MIC, agar incorporation method
S. aureus (MRSA) 21299 = format: cell-based, Staphylococcus aureus; settings: S. No. 5, S. aureus (MRSA) 21299
[1] = test system: Serratia marcescens 12999; format: cell-based; settings: S. No. 29, Serratia marcescens 12999
S. haemo ATCC 29970 = format: cell-based; settings: S. No. 15, S. haemo ATCC 29970
S. pyogenes 19615 = format: cell-based, Streptococcus pyogenes; settings: S. No. 51, S. pyogenes 19615
S. pneumoniae ATCC 6303 = format: cell-based, Streptococcus pneumoniae; settings: S. No. 50, S. pneumoniae ATCC 6303
S. pneumoniae 1256 = format: cell-based, Streptococcus pneumoniae; settings: S. No. 56, S. pneumoniae 1256
S. aureus (MRSA) ST450 = format: cell-based, Staphylococcus aureus; settings: S. No. 6, S. aureus (MRSA) ST450
S. pneumoniae AB4 = format: cell-based, Streptococcus pneumoniae; settings: S. No. 33, S. pneumoniae AB4
Moraxella cata. M2 = format: cell-based; settings: S. No. 59, Moraxella cata. M2
E. faecalis 29212 = format: cell-based; settings: S. No. 17, E. faecalis 29212
S. aureus (Smith 49951) = format: cell-based, Staphylococcus aureus; settings: S. No. 9, S. aureus (Smith 49951)
E. coli 25922 = format: cell-based; settings: S. No. 25, E. coli 25922
S. pneumoniae AB 30 = format: cell-based, Streptococcus pneumoniae; settings: S. No. 47, S. pneumoniae AB 30
S. aureus SG 511 = format: cell-based, Staphylococcus aureus; settings: S. No. 3, S. aureus SG 511
S. pneumoniae AB-2 = format: cell-based, Streptococcus pneumoniae; settings: S. No. 31, S. pneumoniae AB-2
Moraxella M1 = format: cell-based; settings: S. No. 58, Moraxella M1
S. epidermidis 358 = format: cell-based, Staphylococcus epidermidis; settings: S. No. 14, S. epidermidis 358
S. pneumoniae ATCC 49619 = format: cell-based, Streptococcus pneumoniae; settings: S. No. 48, S. pneumoniae ATCC 49619
S. aureus ATCC29213 = format: cell-based, Staphylococcus aureus; settings: S. No. 2, S. aureus ATCC29213
(MRSA) 562 = format: cell-based, Staphylococcus aureus; settings: S. No. 8, (MRSA) 562
S. pneumoniae AB 17 = format: cell-based, Streptococcus pneumoniae; settings: S. No. 40, S. pneumoniae AB 17
S. aureus (MRSA) 15187 = format: cell-based, Staphylococcus aureus; settings: S. No. 4, S. aureus (MRSA) 15187
S. pneumoniae 1275 = format: cell-based, Streptococcus pneumoniae; settings: S. No. 57, S. pneumoniae 1275
S. pyogenes 25147 = format: cell-based, Streptococcus pyogenes; settings: S. No. 52, S. pyogenes 25147
S. pneumoniae AB 23 = format: cell-based, Streptococcus pneumoniae; settings: S. No. 43, S. pneumoniae AB 23
S. pneumoniae 217 = format: cell-based, Streptococcus pneumoniae; settings: S. No. 38, S. pneumoniae 217
S. epidermidis 823 = format: cell-based, Staphylococcus epidermidis; settings: S. No. 12, S. epidermidis 823
S. pneumoniae AB 21 = format: cell-based, Streptococcus pneumoniae; settings: S. No. 41, S. pneumoniae AB 21
E. faecium 398(VRE) = format: cell-based, Enterococcus faecium; settings: S. No. 22, E. faecium 398(VRE)
S. pneumoniae 1251 = format: cell-based, Streptococcus pneumoniae; settings: S. No. 54, S. pneumoniae 1251
E. durans 581 = format: cell-based; settings: S. No. 24, E. durans 581
S. pneumoniae AB 16 = format: cell-based, Streptococcus pneumoniae; settings: S. No. 39, S. pneumoniae AB 16
[2] = test system: S. epidermidis (MRSE)32965; format: cell-based, Staphylococcus epidermidis; settings: S. No. 13, S. epidermidis (MRSE)32965
Acinetobacter 9956 = format: cell-based; settings: S. No. 30, Acinetobacter 9956
[3] = test system: S. epidermidis ATCC 12228; format: cell-based, Staphylococcus epidermidis; settings: S. No. 10, S. epidermidis ATCC 12228
E. faecalis 21777 = format: cell-based; settings: S. No. 18, E. faecalis 21777

Row | SMILES | MIC (S. aureus (MRSA) 21299) | MIC [1] | MIC (S. haemo ATCC 29970) | MIC (S. pyogenes 19615) | MIC (S. pneumoniae ATCC 6303) | MIC (S. pneumoniae 1256) | MIC (S. aureus (MRSA) ST450) | MIC (S. pneumoniae AB4) | MIC (Moraxella cata. M2) | MIC (E. faecalis 29212) | MIC (S. aureus (Smith 49951)) | MIC (E. coli 25922) | MIC (S. pneumoniae AB 30) | MIC (S. aureus SG 511) | MIC (S. pneumoniae AB-2) | MIC (Moraxella M1) | MIC (S. epidermidis 358) | MIC (S. pneumoniae ATCC 49619) | MIC (S. aureus ATCC29213) | MIC ((MRSA) 562) | also measured
1 | CC(=O)NC[C@H]1CN(c2ccc(N3CCN(c4cc(C(OC(C)=O)OC(C)=O)sc4[N+](=O)[O-])CC3)c(F)c2)C(=O)O1 [Compound No. 5, (S)—N-[[3-[3-Fluoro-4-[4-{3-thienyl(2-nitro)-5-acetyloxy}methylacetate]-1-piperazinyl]phenyl]-2-oxo-5-oxazolidinyl]acetamide] | 0.25 µg/mL (≈ 0.421 µM) | >8 µg/mL | <0.06 µg/mL | 0.5 µg/mL (≈ 0.842 µM) | 0.5 µg/mL (≈ 0.842 µM) | 0.25 µg/mL (≈ 0.421 µM) | 1 µg/mL (≈ 1.68 µM) | 0.5 µg/mL (≈ 0.842 µM) | 2 µg/mL (≈ 3.37 µM) | 2 µg/mL (≈ 3.37 µM) | 0.25 µg/mL (≈ 0.421 µM) | >8 µg/mL | 0.5 µg/mL (≈ 0.842 µM) | 0.25 µg/mL (≈ 0.421 µM) | 0.25 µg/mL (≈ 0.421 µM) | 4 µg/mL (≈ 6.74 µM) | <0.06 µg/mL | 0.5 µg/mL (≈ 0.842 µM) | 0.25 µg/mL (≈ 0.421 µM) | 0.25 µg/mL (≈ 0.421 µM) | MIC (S. pneumoniae AB 17): 0.5 µg/mL (≈ 0.842 µM); MIC (S. aureus (MRSA) 15187): 0.25 µg/mL (≈ 0.421 µM); MIC (S. pneumoniae 1275): 0.25 µg/mL (≈ 0.421 µM); MIC (S. pyogenes 25147): 0.5 µg/mL (≈ 0.842 µM); MIC (S. pneumoniae AB 23): 0.5 µg/mL (≈ 0.842 µM); MIC (S. pneumoniae 217): 0.5 µg/mL (≈ 0.842 µM); MIC (S. epidermidis 823): <0.06 µg/mL; MIC (S. pneumoniae AB 21): 0.5 µg/mL (≈ 0.842 µM); MIC (E. faecium 398(VRE)): 1 µg/mL (≈ 1.68 µM); MIC (S. pneumoniae 1251): 0.5 µg/mL (≈ 0.842 µM); MIC (E. durans 581): 2 µg/mL (≈ 3.37 µM); MIC (S. pneumoniae AB 16): 0.5 µg/mL (≈ 0.842 µM); MIC [2]: <0.06 µg/mL; MIC (Acinetobacter 9956): >8 µg/mL; MIC [3]: <0.06 µg/mL; MIC (E. faecalis 21777): 1 µg/mL (≈ 1.68 µM)
2 | CC(=O)NC[C@H]1CN(c2ccc(N3CCN(c4ccc([N+](=O)[O-])s4)CC3)cc2)C(=O)O1 [Compound No. 6, (S)—N-[[3-[4-[N-1-(5-nitro-2-thienyl)piperazinyl]-phenyl]-2-oxo-5-oxazolidinyl]-methyl]-acetamide] | 1 µg/mL (≈ 2.24 µM) | >16 µg/mL | 1 µg/mL (≈ 2.24 µM) | 0.5 µg/mL (≈ 1.12 µM) | 0.5 µg/mL (≈ 1.12 µM) | 0.25 µg/mL (≈ 0.561 µM) | 2 µg/mL (≈ 4.49 µM) | 0.25 µg/mL (≈ 0.561 µM) | 8 µg/mL (≈ 18 µM) | 1 µg/mL (≈ 2.24 µM) | 1 µg/mL (≈ 2.24 µM) | >16 µg/mL | 0.5 µg/mL (≈ 1.12 µM) | 2 µg/mL (≈ 4.49 µM) | 0.25 µg/mL (≈ 0.561 µM) | >16 µg/mL | 1 µg/mL (≈ 2.24 µM) | 0.5 µg/mL (≈ 1.12 µM) | 2 µg/mL (≈ 4.49 µM) | 1 µg/mL (≈ 2.24 µM) | MIC (S. pneumoniae AB 17): 0.25 µg/mL (≈ 0.561 µM); MIC (S. aureus (MRSA) 15187): 2 µg/mL (≈ 4.49 µM); MIC (S. pneumoniae 1275): 0.25 µg/mL (≈ 0.561 µM); MIC (S. pyogenes 25147): 0.5 µg/mL (≈ 1.12 µM); MIC (S. pneumoniae AB 23): 0.5 µg/mL (≈ 1.12 µM); MIC (S. pneumoniae 217): 0.25 µg/mL (≈ 0.561 µM); MIC (S. epidermidis 823): 1 µg/mL (≈ 2.24 µM); MIC (S. pneumoniae AB 21): 0.5 µg/mL (≈ 1.12 µM); MIC (E. faecium 398(VRE)): 1 µg/mL (≈ 2.24 µM); MIC (S. pneumoniae 1251): 0.25 µg/mL (≈ 0.561 µM); MIC (E. durans 581): 1 µg/mL (≈ 2.24 µM); MIC (S. pneumoniae AB 16): 0.5 µg/mL (≈ 1.12 µM); MIC [2]: 1 µg/mL (≈ 2.24 µM); MIC (Acinetobacter 9956): >16 µg/mL; MIC [3]: 1 µg/mL (≈ 2.24 µM); MIC (E. faecalis 21777): 1 µg/mL (≈ 2.24 µM)

Reference: patent US20060293307A1, “Oxazolidinone derivatives as antimicrobials” (priority 2002, published 2006)
